In patent EP4603105A1, “PHARMACEUTICAL COMPOSITION CONTAINING CYCLIC COMPOUND HAVING SELECTIVE KRAS INHIBITORY EFFECT AGAINST HRAS AND NRAS” (CHUGAI SEIYAKU KABUSHIKI KAISHA, priority 2022, dated 2024):
*1 amine or outer side, *2 acyl side, *3 side chain or, on linkers, in order; H or OH if unused. Where a SMILES comes first, the peptide text is derived from it. Bridges are numbered along the chain shown (N, C = ends). [ ]: non-standard residue; d: D form. The star is where a group is joined. hPhe(3-Cl-4-CF3) = N[C@@H](CCc1ccc(C(F)(F)F)c(Cl)c1)C(=O)O; X43 = COCCCN([C@@H](Cc1ccc(C(F)(F)F)cc1)C(=O)[*:2])[*:1]; NPrPhe(4-CF3) = CCCN[C@@H](Cc1ccc(C(F)(F)F)cc1)C(=O)O; NMeGly(cPent) = CN[C@H](C(=O)O)C1CCCC1; Pro(4,4-F2) = O=C(O)[C@@H]1CC(F)(F)CN1; NMeD = CN[C@@H](CC(=O)O)C(=O)O; NMeL = CN[C@@H](CC(C)C)C(=O)O; Morpholide = C1CN(*)CCO1; Ac5c = NC1(C(=O)O)CCCC1; Aze = O=C(O)[C@@H]1CCN1; Sar = CNCC(=O)O

Experiments:
[1] = target: GDP-bound NRAS wild-type protein (Homo sapiens, UniProt P01111); assay: Binding to NRAS by surface plasmon resonance (SPR), KD and KD ratio to KRAS
Sequence of GDP-bound NRAS wild-type protein (P01111 whole entry): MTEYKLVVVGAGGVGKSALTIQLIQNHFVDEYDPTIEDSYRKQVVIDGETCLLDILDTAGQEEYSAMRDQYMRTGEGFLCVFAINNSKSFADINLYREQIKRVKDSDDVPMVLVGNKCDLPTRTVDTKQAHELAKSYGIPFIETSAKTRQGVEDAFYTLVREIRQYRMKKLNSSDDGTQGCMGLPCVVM
Procedure, shortened: (§1)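 GDP-bound biotin-Avi RAS captured at ~100–300 RU, 30°C, pH 7.4 HBS containing 10 µM GDP, 10 mM MgCl2, 1 mM DTT, 0.01% Tween 20 and 4% DMSO. KD by 1:1 fitting.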

[2] = test system: human lung cancer strain NCI-H441; format: cell-based
Procedure, shortened: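 Readout: […] after the ATP-based reagent. Compound: serial dilutions in dimethyl sulfoxide.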

HRAS wild-type protein = HRAS wild-type protein (Homo sapiens, UniProt P01112); assay: Binding to HRAS by surface plasmon resonance (SPR), KD and KD ratio to KRAS
Sequence of HRAS wild-type protein (P01112 whole entry): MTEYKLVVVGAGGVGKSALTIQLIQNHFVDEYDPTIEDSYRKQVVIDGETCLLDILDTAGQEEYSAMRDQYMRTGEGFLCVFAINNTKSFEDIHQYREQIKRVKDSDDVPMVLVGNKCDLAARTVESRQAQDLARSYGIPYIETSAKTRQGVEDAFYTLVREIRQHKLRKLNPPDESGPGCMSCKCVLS
Procedure, shortened: as §1

[3] = ratio of KD for GDP-bound NRAS wild-type protein to KD for KRAS
[4] = ratio of KD for HRAS wild-type protein to KD for KRAS
[5] = ratio of the KD value with respect to GDP-bound NRAS wild-type protein to the KD value with respect to KRAS
[6] = ratio of the KD value with respect to HRAS wild-type protein to the KD value with respect to KRAS
[7] = ratio of KD value for GDP-bound NRAS wild-type protein to KD value for KRAS (SPR)
[8] = ratio of KD value for HRAS wild-type protein to KD value for KRAS (SPR)

| IC50 [2] [µM] | SMILES | NRAS /KRAS [1, 3] | HRAS /KRAS (HRAS wild-type protein; [4]) | NRAS /KRAS [1, 5] | HRAS /KRAS (HRAS wild-type protein; [6]) | NRAS /KRAS [1, 7] | HRAS /KRAS (HRAS wild-type protein; [8]) |
| --- | --- | --- | --- | --- | --- | --- | --- |
| 0.0022 | CCO[C@@H]1C[C@H]2C(=O)NC3(CC(C)(C)C3)C(=O)N(C)[C@@H](C3CCCC3)C(=O)N(C)[C@H](C(=O)N(C)C)CC(=O)N(C)[C@H]3CCCCCCc4ccc(cc4)C[C@@H](C(=O)N(C)CC(=O)N[C@@H](CCc4ccc(C(F)(F)F)c(OC)c4)C(=O)N2C1)N1CC/C=C\C[C@@H](C1=O)N(C)C(=O)CN(C)C(=O)[C@H]([C@@H](C)CC)NC3=O [PP3066] | A (a compound having 10 or more and less than 20 is denoted as A) | B (a compound having 3 or more and less than 10 is denoted as B) | – | – | – | – |
| 0.121 | CC[C@H](C)[C@@H]1NC(=O)[C@H](CC)N(C)C(=O)C[C@@H](C(=O)N(C)C)N(C)C(=O)[C@H](C2CCCC2)N(C)C(=O)C2(CCC2)NC(=O)[C@@H]2C[C@H](OC)CN2C(=O)[C@H](CCc2cc(F)c(C(F)(F)F)c(F)c2)NC(=O)CN(C)C(=O)[C@H](Cc2ccc(C(F)(F)F)cc2)N2CC/C=C\C[C@@H](C2=O)N(C)C(=O)CN(C)C1=O [PP1128] | AA (a compound having 20 or more is denoted as AA) | A (a compound having 10 or more and less than 20 is denoted as A) | – | – | – | – |
| 0.0039 | CCCN1C(=O)CN(C)C(=O)CNC(=O)[C@H]([C@@H](C)CC)NC(=O)[C@H](CC(C)C)N(C)C(=O)C[C@@H](C(=O)N(C)C)N(C)C(=O)[C@H](C2CCCC2)N(C)C(=O)C2(CCCC2)NC(=O)[C@@H]2CCCN2C(=O)[C@H](CCc2ccc(C(F)(F)F)c(Cl)c2)NC(=O)CN(C)C(=O)[C@@H]1Cc1ccc(C(F)(F)F)cc1 [PP0417] ([NMeL]IG[Sar][NPrPhe(4-CF3)][Sar][hPhe(3-Cl-4-CF3)]P[Ac5c][NMeGly(cPent)][NMeD]-NMe2; lactam N-11) | – | – | B (a compound having 3 or more and less than 10 is denoted as B) | C (A compound having a KD ratio of 0.1 or more and less than 3 is denoted as C) | – | – |
| 0.0982 | CCO[C@@H]1C[C@H]2C(=O)NC3(CCC3)C(=O)N(C)[C@@H](C3CCCC3)C(=O)N(C)[C@H](C(=O)N3CCOCC3)CC(=O)N(C)[C@@H](CC(C)C)C(=O)N[C@@H]([C@@H](C)CC)C(=O)N(C)CC(=O)N(C)[C@H]3CCCCCN(C3=O)[C@@H](Cc3ccc(F)c(C)c3)C(=O)N(C)CC(=O)N[C@@H](CCc3cc(F)c(C(F)(F)F)c(F)c3)C(=O)N2C1 [PP0922] | B (a compound having 3 or more and less than 10 is denoted as B) | B (a compound having 3 or more and less than 10 is denoted as B) | – | – | – | – |
| 0.0008 | CCCN1C(=O)[C@@H]2CCN2C(=O)CN(C)C(=O)[C@H]([C@@H](C)CC)NC(=O)[C@H](CC(C)C)N(C)C(=O)C[C@@H](C(=O)N(C)C)N(C)C(=O)[C@H](C2CCCC2)N(C)C(=O)C2(CCCC2)NC(=O)[C@@H]2CC(F)(F)CN2C(=O)[C@H](CCc2ccc(C(F)(F)F)c(Cl)c2)NC(=O)CN(C)C(=O)[C@@H]1Cc1ccc(C(F)(F)F)cc1 [PP0442] ([NMeL]I[Sar][Aze][NPrPhe(4-CF3)][Sar][hPhe(3-Cl-4-CF3)][Pro(4,4-F2)][Ac5c][NMeGly(cPent)][NMeD]-NMe2; lactam N-11) | – | – | C (A compound having a KD ratio of 0.1 or more and less than 3 is denoted as C) | C (A compound having a KD ratio of 0.1 or more and less than 3 is denoted as C) | – | – |
| 0.02 | CCO[C@@H]1C[C@H]2C(=O)NC3(CCCC3)C(=O)N(C)[C@@H](C3CCCC3)C(=O)N(C)[C@H](C(=O)N(C)C)CC(=O)N(C)[C@@H](CC(C)C)C(=O)N[C@@H]([C@@H](C)CC)C(=O)N(C)CC(=O)N(C)[C@H]3C/C=C\CCN(C3=O)[C@@H](Cc3ccc(C(F)(F)F)cc3)C(=O)N(C)CC(=O)N[C@@H](CCc3cc(F)c(Cl)c(F)c3)C(=O)N2C1 [PP2269] | – | – | A (a compound having 10 or more and less than 20 is denoted as A) | A (a compound having 10 or more and less than 20 is denoted as A) | – | – |
| 0.0064 | CC[C@H](C)[C@@H]1NC(=O)[C@H](CC(C)C)N(C)C(=O)C[C@@H](C(=O)N2CCOCC2)N(C)C(=O)[C@H](C2CCCC2)N(C)C(=O)C2(CCCC2)NC(=O)[C@@H]2CCCN2C(=O)[C@H](CCc2ccc(C(F)(F)F)c(Cl)c2)NC(=O)CN(C)C(=O)[C@H](Cc2ccc(C(F)(F)F)cc2)N(CCCOC)C(=O)CN(C)C(=O)CN(C)C1=O [PP0133] ([NMeL]I[Sar][Sar][X43][Sar][hPhe(3-Cl-4-CF3)]P[Ac5c][NMeGly(cPent)][NMeD]-Morpholide; lactam N-11) | B (a compound having 3 or more and less than 10 is denoted as B) | C (A compound having a KD ratio of 0.1 or more and less than 3 is denoted as C) | – | – | – | – |
| 0.014 | CCO[C@@H]1C[C@H]2C(=O)NC3(CCC3)C(=O)N(C)[C@@H](C3CCCC3)C(=O)N(C)[C@H](C(=O)N(C)C)CC(=O)N(C)[C@@H](CC)C(=O)N[C@@H]([C@@H](C)CC)C(=O)N3CC[C@H]3C(=O)N(C)[C@H]3C[C@@H](C)CCN(C3=O)[C@@H](Cc3ccc(C(F)(F)F)cc3)C(=O)N(C)CC(=O)N[C@@H](CCc3cc(F)c(C(F)(F)F)c(F)c3)C(=O)N2C1 [PP1021] | C (A compound having a KD ratio of 0.1 or more and less than 3 is denoted as C) | B (a compound having 3 or more and less than 10 is denoted as B) | – | – | – | – |
| 0.0442 | CC[C@H](C)[C@@H]1NC(=O)[C@H](CC(C)C)N(C)C(=O)C[C@@H](C(=O)N2CCOCC2)N(C)C(=O)[C@H](C2CCCC2)N(C)C(=O)C2(CCC2)NC(=O)[C@@H]2CCCN2C(=O)[C@H](CCc2cc(F)c(C(F)(F)F)c(F)c2)NC(=O)CN(C)C(=O)[C@H](Cc2ccc(C(F)(F)F)cc2)N2CCCCC[C@@H](C2=O)N(C)C(=O)CN(C)C1=O [PP0497] | – | – | B (a compound having 3 or more and less than 10 is denoted as B) | B (a compound having 3 or more and less than 10 is denoted as B) | – | – |
| 0.0027 | CCCN1C(=O)CN(C)C(=O)CN(C)C(=O)[C@H]([C@@H](C)CC)NC(=O)[C@H](CC(C)C)N(C)C(=O)C[C@@H](C(=O)N2CCOCC2)N(C)C(=O)[C@H](C2CCCC2)N(C)C(=O)C2(CCCC2)NC(=O)[C@@H]2CC(F)(F)CN2C(=O)[C@H](CCc2ccc(C(F)(F)F)c(Cl)c2)NC(=O)CN(C)C(=O)[C@@H]1Cc1ccc(C(F)(F)F)cc1 [PP0195] ([NMeL]I[Sar][Sar][NPrPhe(4-CF3)][Sar][hPhe(3-Cl-4-CF3)][Pro(4,4-F2)][Ac5c][NMeGly(cPent)][NMeD]-Morpholide; lactam N-11) | B (a compound having 3 or more and less than 10 is denoted as B) | C (A compound having a KD ratio of 0.1 or more and less than 3 is denoted as C) | – | – | – | – |
| 0.0096 | CCCC[C@H]1C(=O)N[C@@H]([C@@H](C)CC)C(=O)N(C)CC(=O)N(C)[C@H]2C/C=C\CCN(C2=O)[C@@H](Cc2ccc(C)cc2)C(=O)N(C)CC(=O)N[C@@H](CCc2cc(F)c(C(F)(F)F)c(F)c2)C(=O)N2C[C@H](OCC)C[C@H]2C(=O)NC2(CCC2)C(=O)N(C)[C@@H](C2CCCC2)C(=O)N(C)[C@H](C(=O)N(C)CC)CC(=O)N1C [PP2796] | A (a compound having 10 or more and less than 20 is denoted as A) | A (a compound having 10 or more and less than 20 is denoted as A) | – | – | – | – |
| 0.0126 | CCO[C@@H]1C[C@H]2C(=O)NC3(CC(C)(C)C3)C(=O)N(C)[C@@H](C3CCCC3)C(=O)N3CCC[C@@H]3CC(=O)N(C)[C@@H](CC)C(=O)N[C@@H]([C@@H](C)CC)C(=O)N(C)CC(=O)N(C)[C@H]3C/C=C\CCN(C3=O)[C@@H](Cc3ccc(C(F)(F)F)cc3)C(=O)N(C)CC(=O)N[C@@H](CCc3cc(F)c(C(F)(F)F)c(F)c3)C(=O)N2C1 [PP1606] | – | – | – | – | B (a compound having 3 or more and less than 10 is denoted as B) | B (a compound having 3 or more and less than 10 is denoted as B) |
| 0.038 | CCCN1C(=O)CN(C)C(=O)[C@H](C)NC(=O)[C@H]([C@@H](C)CC)NC(=O)[C@H](CC(C)C)N(C)C(=O)C[C@@H](C(=O)N2CCOCC2)N(C)C(=O)[C@H](C2CCCC2)N(C)C(=O)C2(CCCC2)NC(=O)[C@@H]2CCCN2C(=O)[C@H](CCc2ccc(C(F)(F)F)c(Cl)c2)NC(=O)CN(C)C(=O)[C@@H]1Cc1ccc(C(F)(F)F)cc1 [PP1971] ([NMeL]IA[Sar][NPrPhe(4-CF3)][Sar][hPhe(3-Cl-4-CF3)]P[Ac5c][NMeGly(cPent)][NMeD]-Morpholide; lactam N-11) | – | – | B (a compound having 3 or more and less than 10 is denoted as B) | B (a compound having 3 or more and less than 10 is denoted as B) | – | – |
| 0.766 | CC[C@H](C)[C@@H]1NC(=O)[C@H](CC(C)C)N(C)C(=O)C[C@@H](C(=O)N2CCOCC2)N(C)C(=O)[C@H](C2CCCC2)NC(=O)C2(CCCC2)NC(=O)[C@@H]2CCCN2C(=O)[C@H](CCc2cc(F)c(C(F)(F)F)c(F)c2)NC(=O)CN(C)C(=O)[C@H](Cc2ccc(C(F)(F)F)cc2)N2CCCC[C@@H](C2=O)N(C)C(=O)CN(C)C1=O [PP0540] | – | – | B (a compound having 3 or more and less than 10 is denoted as B) | B (a compound having 3 or more and less than 10 is denoted as B) | – | – |
| 0.0466 | CCO[C@@H]1C[C@H]2C(=O)NC3(CCC3)C(=O)N(C)[C@@H](C3CCCC3)C(=O)N(C)[C@H](C(=O)N(C)C)CC(=O)N(C)[C@@H](CC3CCCC3)C(=O)N[C@@H]([C@@H](C)CC)C(=O)N(C)CC(=O)N(C)[C@H]3C/C=C\CCN(C3=O)[C@@H](Cc3ccc(C)cc3)C(=O)N(C)CC(=O)N[C@@H](CCc3ccc(Cl)c(Cl)c3)C(=O)N2C1 [PP1487] | – | – | – | – | A (a compound having 10 or more and less than 20 is denoted as A) | A (a compound having 10 or more and less than 20 is denoted as A) |
